Legend:
Assay in all cases: relative viability (nuclei count vs DMSO), 5 days (fraction); higher = more cells survive
HOP-62 = test system: HOP-62
How it was run: (§1)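 Cells from lung cancer lines were seeded into 1536-well plates and, one day later, dosed by pin tool. Treatments were either a single drug or a fixed dose of an anchor drug with five library-drug doses (not always all listed) in √10 steps. After 5 days, nuclei were stained in a one-step fixation (final 0.05% Triton X-100, 1% formaldehyde, 1 ug/ml Hoechst) and counted on 4× images, and relative viability is the treated-to-vehicle nuclei ratio, as the median of duplicate plates.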

LK-2 = test system: LK-2
How it was run: as §1

SK-MES-1 = test system: SK-MES-1
How it was run: as §1

H3255 = test system: H3255
How it was run: as §1

ABC-1 = test system: ABC-1
How it was run: as §1

NCI-H1651 = test system: NCI-H1651
How it was run: as §1

201T = test system: 201T
How it was run: as §1

PC-14 = test system: PC-14
How it was run: as §1

NCI-H2009 = test system: NCI-H2009
How it was run: as §1

ChaGo-K-1 = test system: ChaGo-K-1
How it was run: as §1

LXF-289 = test system: LXF-289
How it was run: as §1

NCI-H2126 = test system: NCI-H2126
How it was run: as §1

NCI-H3122 = test system: NCI-H3122
How it was run: as §1

NCI-H596 = test system: NCI-H596
How it was run: as §1

NCI-H647 = test system: NCI-H647
How it was run: as §1

NCI-H441 = test system: NCI-H441
How it was run: as §1

NCI-H322M = test system: NCI-H322M
How it was run: as §1

NCI-H2087 = test system: NCI-H2087
How it was run: as §1

CAL-12T = test system: CAL-12T
How it was run: as §1

EMC-BAC-2 = test system: EMC-BAC-2
How it was run: as §1

NCI-H1755 = test system: NCI-H1755
How it was run: as §1

NCI-H1734 = test system: NCI-H1734
How it was run: as §1

NCI-H2170 = test system: NCI-H2170
How it was run: as §1

## O=c1[nH]c2ccccc2n1C1CCN(CCCC(c2ccc(F)cc2)c2ccc(F)cc2)CC1 [Pimozide] + O=C(c1cc(Cc2n[nH]c(=O)c3ccccc23)ccc1F)N1CCN(C(=O)C2CC2)CC1 [Olaparib] (partner 8 µM)
HOP-62; first compound 0.08 µM
  relative viability: 0.588
HOP-62; first compound 0.253 µM
  relative viability: 0.342
HOP-62; first compound 0.8 µM
  relative viability: 0.356
HOP-62; first compound 2.53 µM
  relative viability: 0.39
HOP-62; first compound 8 µM
  relative viability: 0.56
LK-2; first compound 0.08 µM
  relative viability: 0.643
LK-2; first compound 0.253 µM
  relative viability: 0.687
LK-2; first compound 0.8 µM
  relative viability: 0.765
LK-2; first compound 2.53 µM
  relative viability: 0.693
LK-2; first compound 8 µM
  relative viability: 0.691
SK-MES-1; first compound 0.08 µM
  relative viability: 0.715
SK-MES-1; first compound 0.253 µM
  relative viability: 0.686
SK-MES-1; first compound 0.8 µM
  relative viability: 0.749
SK-MES-1; first compound 2.53 µM
  relative viability: 0.697
SK-MES-1; first compound 8 µM
  relative viability: 0.619
H3255; first compound 0.253 µM
  relative viability: 0.511
H3255; first compound 0.8 µM
  relative viability: 0.504
H3255; first compound 2.53 µM
  relative viability: 0.523
H3255; first compound 8 µM
  relative viability: 0.59
ABC-1; first compound 0.08 µM
  relative viability: 0.782
ABC-1; first compound 0.253 µM
  relative viability: 0.975
ABC-1; first compound 0.8 µM
  relative viability: 1.21
ABC-1; first compound 2.53 µM
  relative viability: 0.618
ABC-1; first compound 8 µM
  relative viability: 0.477
NCI-H1651; first compound 0.08 µM
  relative viability: 0.203
NCI-H1651; first compound 0.253 µM
  relative viability: 0.189
NCI-H1651; first compound 0.8 µM
  relative viability: 0.177
NCI-H1651; first compound 2.53 µM
  relative viability: 0.182
NCI-H1651; first compound 8 µM
  relative viability: 0.187
201T; first compound 0.08 µM
  relative viability: 0.876
201T; first compound 0.253 µM
  relative viability: 0.836
201T; first compound 0.8 µM
  relative viability: 0.807
201T; first compound 2.53 µM
  relative viability: 0.821
201T; first compound 8 µM
  relative viability: 0.719
PC-14; first compound 0.253 µM
  relative viability: 0.276
PC-14; first compound 0.8 µM
  relative viability: 0.225
PC-14; first compound 2.53 µM
  relative viability: 0.215
PC-14; first compound 8 µM
  relative viability: 0.209
NCI-H2009; first compound 0.08 µM
  relative viability: 0.761
NCI-H2009; first compound 0.253 µM
  relative viability: 0.649
NCI-H2009; first compound 0.8 µM
  relative viability: 0.769
NCI-H2009; first compound 2.53 µM
  relative viability: 0.683
NCI-H2009; first compound 8 µM
  relative viability: 0.629
ChaGo-K-1; first compound 0.08 µM
  relative viability: 0.402
ChaGo-K-1; first compound 0.253 µM
  relative viability: 0.365
ChaGo-K-1; first compound 0.8 µM
  relative viability: 0.433
ChaGo-K-1; first compound 2.53 µM
  relative viability: 0.467
ChaGo-K-1; first compound 8 µM
  relative viability: 0.413
LXF-289; first compound 0.08 µM
  relative viability: 1.09
LXF-289; first compound 0.253 µM
  relative viability: 1.04
LXF-289; first compound 0.8 µM
  relative viability: 1.01
LXF-289; first compound 2.53 µM
  relative viability: 0.937
LXF-289; first compound 8 µM
  relative viability: 1.03
NCI-H2126; first compound 0.08 µM
  relative viability: 0.922
NCI-H2126; first compound 0.253 µM
  relative viability: 0.89
NCI-H2126; first compound 0.8 µM
  relative viability: 0.944
NCI-H2126; first compound 2.53 µM
  relative viability: 0.92
NCI-H2126; first compound 8 µM
  relative viability: 0.858
NCI-H3122; first compound 0.08 µM
  relative viability: 0.529
NCI-H3122; first compound 0.253 µM
  relative viability: 0.684
NCI-H3122; first compound 0.8 µM
  relative viability: 0.66
NCI-H3122; first compound 2.53 µM
  relative viability: 0.637
NCI-H3122; first compound 8 µM
  relative viability: 0.576
NCI-H596; first compound 0.08 µM
  relative viability: 0.768
NCI-H596; first compound 0.253 µM
  relative viability: 0.755
NCI-H596; first compound 0.8 µM
  relative viability: 0.663
NCI-H596; first compound 2.53 µM
  relative viability: 0.745
NCI-H596; first compound 8 µM
  relative viability: 0.779
NCI-H647; first compound 0.08 µM
  relative viability: 0.562
NCI-H647; first compound 0.253 µM
  relative viability: 0.503
NCI-H647; first compound 0.8 µM
  relative viability: 0.391
NCI-H647; first compound 2.53 µM
  relative viability: 0.495
NCI-H647; first compound 8 µM
  relative viability: 0.28
NCI-H441; first compound 0.08 µM
  relative viability: 0.641
NCI-H441; first compound 0.253 µM
  relative viability: 0.593
NCI-H441; first compound 0.8 µM
  relative viability: 0.506
NCI-H441; first compound 2.53 µM
  relative viability: 0.416
NCI-H441; first compound 8 µM
  relative viability: 0.57
NCI-H322M; first compound 0.08 µM
  relative viability: 0.76
NCI-H322M; first compound 0.253 µM
  relative viability: 0.732
NCI-H322M; first compound 0.8 µM
  relative viability: 0.684
NCI-H322M; first compound 2.53 µM
  relative viability: 0.833
NCI-H322M; first compound 8 µM
  relative viability: 0.795
NCI-H2087; first compound 0.08 µM
  relative viability: 0.679
NCI-H2087; first compound 0.253 µM
  relative viability: 0.582
NCI-H2087; first compound 2.53 µM
  relative viability: 0.579
NCI-H2087; first compound 8 µM
  relative viability: 0.45
CAL-12T; first compound 0.08 µM
  relative viability: 0.672
CAL-12T; first compound 0.253 µM
  relative viability: 0.687
CAL-12T; first compound 0.8 µM
  relative viability: 0.709
CAL-12T; first compound 2.53 µM
  relative viability: 0.698
CAL-12T; first compound 8 µM
  relative viability: 0.623
EMC-BAC-2; first compound 0.08 µM
  relative viability: 0.506
EMC-BAC-2; first compound 0.253 µM
  relative viability: 0.463
EMC-BAC-2; first compound 0.8 µM
  relative viability: 0.455
EMC-BAC-2; first compound 2.53 µM
  relative viability: 0.456
EMC-BAC-2; first compound 8 µM
  relative viability: 0.448
NCI-H1755; first compound 0.08 µM
  relative viability: 0.879
NCI-H1755; first compound 0.253 µM
  relative viability: 0.842
NCI-H1755; first compound 0.8 µM
  relative viability: 0.845
NCI-H1755; first compound 2.53 µM
  relative viability: 0.825
NCI-H1755; first compound 8 µM
  relative viability: 0.776
NCI-H1734; first compound 0.08 µM
  relative viability: 0.645
NCI-H1734; first compound 0.253 µM
  relative viability: 0.563
NCI-H1734; first compound 0.8 µM
  relative viability: 0.613
NCI-H1734; first compound 2.53 µM
  relative viability: 0.636
NCI-H1734; first compound 8 µM
  relative viability: 0.637
NCI-H2170; first compound 0.08 µM
  relative viability: 0.592
NCI-H2170; first compound 0.253 µM
  relative viability: 0.554
NCI-H2170; first compound 0.8 µM
  relative viability: 0.608
NCI-H2170; first compound 2.53 µM
  relative viability: 0.593
NCI-H2170; first compound 8 µM
  relative viability: 0.543

Source: the supplement of paper PMC10307832
